Results taken from article PMC12376758, “Restoration of CB1 receptor function in hippocampal GABAergic neurons rescues memory deficits in Huntington’s disease models” (Translational Neurodegeneration, 2025).
Read-outs that look alike come from different tables or passages of the source.

Experiments:
WT mice [1] = test: Open field test in WT mice (WIN dose selection); assay type: in vivo, mouse; conditions: 13-week-old WT mice, WIN 1 and 4 mg/kg i.p., 10 days
Method: NOLT was conducted in a quadrangular open field (40 cm × 40 cm, 40 cm high) with a light intensity of 40 lx at controlled room conditions (19–22 °C, 40%–60% humidity). Mice were first habituated to the arena, which was devoid of objects but included spatial cues attached to the walls, for 15 min per session over two consecutive days. During this phase, spontaneous locomotor activity, as well as the time and the distance spent in the periphery versus the center, were measured. On the third day (NOLT training), two identical objects (A and A′) were placed in adjacent corners of the arena, and mice were allowed to explore for 10 min. […] Animal movements were tracked and recorded using the SMART® Junior software (Panlab, Spain). Exploration times were recorded to calculate the discrimination index as follows: discriminationindex=Timeexploringnovelobject-Timeexploringfamiliarobject/Timeexploringbothobjects×100\%
Exploration in the NORT followed the same conditions as described for the NOLT. […] During this phase, spontaneous locomotor activity and time/distance spent in the periphery versus the center of the arena were measured. […] Animal movements were tracked and recorded with the SMART® Junior software (Panlab, Spain). Exploration times were recorded and used to calculate the discrimination index as indicated above. […]

WT mice [2] = test: Novel object location task (NOLT) in WT mice (WIN dose selection); assay type: in vivo, mouse; conditions: 13-week-old WT mice, WIN 1 and 4 mg/kg i.p., 10 days
Method: NOLT was conducted in a quadrangular open field (40 cm × 40 cm, 40 cm high) with a light intensity of 40 lx at controlled room conditions (19–22 °C, 40%–60% humidity). Mice were first habituated to the arena, which was devoid of objects but included spatial cues attached to the walls, for 15 min per session over two consecutive days. During this phase, spontaneous locomotor activity, as well as the time and the distance spent in the periphery versus the center, were measured. On the third day (NOLT training), two identical objects (A and A′) were placed in adjacent corners of the arena, and mice were allowed to explore for 10 min. Twenty-four hours later (NOLT testing), the object A was placed in the same location, while a new object (A″) was placed in the diagonally opposite corner. During the testing phase, mice were allowed to explore for 5 min. The arena was thoroughly cleaned between trials to eliminate residual odors. Animal movements were tracked and recorded using the SMART® Junior software (Panlab, Spain). Exploration times were recorded to calculate the discrimination index as follows: discriminationindex=Timeexploringnovelobject-Timeexploringfamiliarobject/Timeexploringbothobjects×100\%
(§1) Given the observed reduction of CB1R in the R6/1 hippocampus, we hypothesized that pharmacological activation of the remaining CB1Rs could mitigate HD-related memory decline.

WT mice [3] = test: Novel object recognition task (NORT) in WT mice (WIN dose selection); assay type: in vivo, mouse; conditions: 13-week-old WT mice, WIN 1 and 4 mg/kg i.p., 10 days
Method: Exploration in the NORT followed the same conditions as described for the NOLT. Mice were first habituated to the arena, without objects, for 15 min on two consecutive days. During this phase, spontaneous locomotor activity and time/distance spent in the periphery versus the center of the arena were measured. On the third day (NORT training), mice were allowed to explore two identical objects (B and B′) for 10 min before being returned to their home cage. Twenty-four hours later (NORT testing), one of the familiar objects (B) and a new object (C) were placed in the same location as during the training session, and the mice were allowed to explore for 5 min. The arena was thoroughly cleaned between trials to prevent odor contamination. Animal movements were tracked and recorded with the SMART® Junior software (Panlab, Spain). Exploration times were recorded and used to calculate the discrimination index as indicated above.
as §1

WT mice [4] = test: Y-maze in WT mice (WIN dose selection); assay type: in vivo, mouse; conditions: 13-week-old WT mice, WIN 1 and 4 mg/kg i.p., 10 days
Method: (§2) Spontaneous working memory was assessed using the Y-maze test. Mice were habituated to the testing room 1 h prior to the session. During the 8-min trial, each mouse was placed in the center of the maze and allowed to move freely. An arm entry was recorded when all four paws of the mouse were within the arm. The apparatus was cleaned thoroughly after each trial. Alternation was defined as successive entries into all three arms in an overlapping triplet sequence. Spontaneous alternation was calculated as the ratio of actual alternations to the total possible alternations, and the result was expressed as a percentage.
as §1

R6/1 mice = test: Y-maze spontaneous alternation in R6/1 mice; assay type: in vivo, mouse; conditions: WIN 1 mg/kg i.p. 10 days
Method: To selectively induce CB1R expression in GABAergic neurons, we generated a plasmid for AAV8-mDlx5/6-CNR1. Infectious AAV viral particles were developed by the Viral Vector Production Unit (UPV) of the Universitat Autònoma de Barcelona (UAB). WT and R6/1 mice, aged 10 weeks, were anesthetized with ketamine hydrochloride/xylazine hydrochloride (i.p.; 100 and 10 mg/kg, respectively, Merck) and injected bilaterally in the hippocampus with AAV8-mDlx-CB1R or AAV8-mCherry (Vector Biolabs) (viral concentrations ranging from 1.8 × 10^9 to 1.5 × 10^9). The injection coordinates (in mm) from bregma (anteroposterior and lateral) and from skull (dorsoventral) were as follows: anteroposterior: − 2.0; lateral ± 1.25, and dorsoventral: − 1.3 (CA1). AAVs were injected for over 2 min, and the cannula was left in place for an additional 5 min to allow complete diffusion of the virus before being slowly retracted. Mice were monitored for 1 h post-injection and then returned to the housing facility for 3 weeks. […] For double-positive quantification, Pearson’s correlation coefficient was calculated using ImageJ2. […]
Spontaneous working memory was assessed using the Y-maze test. […] An arm entry was recorded when all four paws of the mouse were within the arm. […] Spontaneous alternation was calculated as the ratio of actual alternations to the total possible alternations, and the result was expressed as a percentage.

[5] = system: Hdh^Q7/Q111 mutant KI mice; test: NOLT, NORT and Y-maze in Hdh^Q7/Q111 KI mice; assay type: in vivo, mouse; conditions: 6 months, sub-chronic WIN 1 mg/kg i.p.
Method: as §2
NOLT was conducted in a quadrangular open field (40 cm × 40 cm, 40 cm high) with a light intensity of 40 lx at controlled room conditions (19–22 °C, 40%–60% humidity). […] During this phase, spontaneous locomotor activity, as well as the time and the distance spent in the periphery versus the center, were measured. […] Animal movements were tracked and recorded using the SMART® Junior software (Panlab, Spain). Exploration times were recorded to calculate the discrimination index as follows: discriminationindex=Timeexploringnovelobject-Timeexploringfamiliarobject/Timeexploringbothobjects×100\%
Exploration in the NORT followed the same conditions as described for the NOLT. […] Animal movements were tracked and recorded with the SMART® Junior software (Panlab, Spain). […]

CB1R [6] = assay type: in vivo, mouse; conditions: for CB1R protein level, Western blot: total hippocampal lysates, WIN 1 mg/kg i.p. 10 days
CB1R [7] = assay type: in vivo, mouse; conditions: hippocampus
Method: WT and R6/1 mice were deeply anesthetized with ketamine and xylazine (i.p injection; 100 mg/kg and 10 mg/kg, respectively) and immediately perfused transcardially with saline, followed by 4% paraformaldehyde in phosphate buffer. Brains were then removed, post-fixed overnight in the same solution, cryoprotected by immersion in 30% sucrose, and frozen in dry ice-cooled methylbutane. Serial coronal cryostat sections (30 μm) were collected through the entire brain in PBS as free-floating sections and processed as described previously [47].
Sections were rinsed three times in PBS, permeabilized, and blocked in PBS containing 0.3% Triton X-100 and 3% normal goat serum (Pierce Biotechnology, Rockford, IL) for 15 min at room temperature. […]
Stained coronal sections were examined using a Carl Zeiss LSM880 confocal microscope, a 10 × , 40 × and 63 × oil-immersion objective, 4 × digital zoom, and a standard Airy disc pinhole. For each mouse, at least three 30-µm thick coronal sections containing the hippocampal region were analyzed. […] The CB1R-, calbindin- and GAD67-integrated density was quantified with NIH ImageJ2 version 2.9.0/1.53t (Wayne Rasband, NIH). For double-positive quantification, Pearson’s correlation coefficient was calculated using ImageJ2. […]

[8] = system: mutant huntingtin (mHtt) aggregates; test: EM48 immunostaining of mutant huntingtin nuclear aggregates in hippocampus; assay type: in vivo, mouse; conditions: R6/1 mice, hippocampus (CA1), WIN 1 mg/kg i.p. vs vehicle
Method: Hippocampal coronal sections from vehicle- and WIN-treated R6/1 mice were first incubated for 30 min in ammonium chloride (NH4Cl) to quench endogenous fluorescence. They were then blocked for 1 h in PBS containing 0.3% Triton X-100 (Merck), 3% normal goat serum (Abcam), and 1% bovine serum albumin (BSA; Merck). After blocking, the sections were incubated overnight at 4 °C with anti-EM48 (1:1000, Merck). The EM48 antibody specifically recognizes huntingtin-containing nuclear aggregates by targeting the first 256 amino acids of human huntingtin protein [48]. […]
Imaging was performed using a Leica Confocal SP5 with a 63 × oil-immersion objective, ensuring consistent imaging conditions (pinhole size:1 AU, resolution: 1024 × 1024 pixels, and intensity). Automated quantification of nuclear huntingtin aggregates, including the number, intensity, and pixel area of EM48-stained nuclei in the hippocampus, was carried out using the ImageJ particle analysis plugin.
The density of aggregates was calculated as the ratio of the number of positive particles (NII) to the pixel area (mm^2). EM48 staining index (SI) was determined as the product of the mean number of stained nuclei and the average nuclear stain intensity, as described previously.

CB2R = test: Western blot of CB2R in total hippocampal lysates after sub-chronic WIN; assay type: in vivo, mouse; conditions: WIN 1 mg/kg i.p. 10 days
CA1 pyramidal neurons [9] = test: Golgi-Cox dendritic spine density analysis; assay type: in vivo, mouse; conditions: R6/1 mice, WIN 1 mg/kg i.p. sub-chronic
Method: Golgi-Cox impregnation was performed using the Rapid Golgistain Kit (FD Neurotechnologies, Columbia, MD) following the manufacturer's instructions. Mice were euthanized by cervical dislocation, and brains were rapidly removed. The two hemispheres were separated and incubated in a solution of A/B for 2 weeks. After this period, the brains were transferred to solution C for an additional 7 days. The brains were then processed using a cryostat to obtain 100-μm sections, which were mounted on gelatin-coated slides and left to dry for 24 h.
The sections were stained with the solutions provided in the kit and subsequently dehydrated before being mounted with DPX. Bright field images were acquired using a Leica AF6000 epifluorescence microscope with a × 63 numerical aperture objective for dendritic spine analysis. Segments of apical dendrites from hippocampal CA1 pyramidal neurons were selected for analysis. Dendritic spine density was manually quantified using the ImageJ Plug-in Cell Counter. Spines were marked in the appropriate focal plane preventing double counting, and only fully impregnated pyramidal neurons with their soma entirely within the thickness of the section were included. Dendritic segments ranging from 20 to 60 μm in length were analyzed. At least 60 dendrites per group from at least three mice per genotype were counted.

PSD95 = test: Western blot of PSD95 in hippocampal lysates; assay type: in vivo, mouse; conditions: R6/1 mice, WIN 1 mg/kg i.p. 10 days
BDNF = test: Western blot of BDNF in hippocampal lysates; assay type: in vivo, mouse; conditions: R6/1 mice, WIN 1 mg/kg i.p. 10 days
CA1 pyramidal neurons [10] = test: Ex vivo patch-clamp: depolarization-induced suppression of inhibition (DSI); assay type: in vivo, mouse; conditions: hippocampal slices of WIN-treated R6/1 mice, n = 17 neurons
adult rats = system: adult rats; design: method as in PMID 12888772; conditions: chronic treatment; cited from earlier work
[11] = system: rat model of cholinergic degeneration; design: method as in PMID 39489624; conditions: low-dose WIN; cited from earlier work
CB1R [12] = system: CB1R; design: method as in PMID 36979335; conditions: rat model of cerebral ischemia; cited from earlier work
young rats = conditions: chronic WIN; cited from earlier work
[13] = system: models of vascular dementia and ischemic injury; design: method as in PMID 36979335, PMID 29945070; conditions: cited from earlier work
mHtt = system: mHtt; design: method as in PMID 20929960; conditions: pharmacological activation of CB1R, HD mouse models; cited from earlier work
aged mice = system: aged mice; design: method as in PMID 16221768, PMID 36697430; conditions: chronic low-dose; cited from earlier work
CB1R [14] = target: T1, CB1R (Mus musculus, UniProt P47746); test: biochemical; assay type: binding; conditions: for Fraction high: CP55940 inhibition curve; for IC50: CP55940 vs [3H]SR141716A 2 nmol/L
T1 construct: from tissue
T1 sequence (P47746 whole entry): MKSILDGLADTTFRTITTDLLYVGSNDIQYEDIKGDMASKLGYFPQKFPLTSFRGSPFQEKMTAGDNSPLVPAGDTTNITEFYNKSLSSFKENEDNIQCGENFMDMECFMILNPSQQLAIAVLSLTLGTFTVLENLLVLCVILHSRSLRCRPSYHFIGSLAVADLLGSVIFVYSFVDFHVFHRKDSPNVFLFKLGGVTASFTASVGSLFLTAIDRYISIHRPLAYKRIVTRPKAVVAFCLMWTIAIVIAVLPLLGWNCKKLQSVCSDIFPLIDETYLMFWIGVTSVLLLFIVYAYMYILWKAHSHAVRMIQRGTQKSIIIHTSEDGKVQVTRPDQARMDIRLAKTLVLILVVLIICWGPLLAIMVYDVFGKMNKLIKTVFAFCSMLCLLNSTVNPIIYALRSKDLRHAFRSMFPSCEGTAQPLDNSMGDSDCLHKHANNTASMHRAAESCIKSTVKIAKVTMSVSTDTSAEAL

## Cc1c(C(=O)c2cccc3ccccc23)c2cccc3c2n1[C@H](CN1CCOCC1)CO3 [WIN, WIN 55212–2]
WT mice [1]
  time spent in the periphery and the center of the open field arena: No adverse effects
  total distance traveled during the open field test: No adverse effects
WT mice [2]
  spatial memory (NOLT): no differences
WT mice [3]
  recognition memory (NORT): no differences
WT mice [4]
  working memory (Y-maze): no differences
R6/1 mice; presymptomatic stage (11 weeks, Fig. S4d)
  spontaneous alternation performance (Y-maze): significantly enhanced
R6/1 mice; symptomatic stage (13 weeks, Fig. 3d)
  spontaneous alternation performance (Y-maze): significantly enhanced
[5]
  memory deficits (NOLT, NORT, Y-maze): restored
CB1R [6]; Hdh^Q7/Q111 KI mice 6 months, hippocampal lysates, sub-chronic WIN
  CB1R levels, Western blot: trend of increase
CB1R [6]; R6/1 mice 13 weeks
  CB1R protein level, Western blot: restored
CB1R [6]; WT mice
  CB1R protein level, Western blot: significantly modulated
CB1R [7]; Hdh^Q7/Q111 KI mice, sub-chronic WIN
  CB1R staining, immunohistochemistry: restored to near WT levels
CB1R [7]; R6/1 mice, WIN 1 mg/kg i.p. 10 days
  CB1R levels, immunohistochemistry: comparable to those of WT controls
[8]
  density of intranuclear mHtt inclusion: significant reduction
CB2R; Hdh^Q7/Q111 KI mice 6 months
  CB2R levels, Western blot: did not significantly affect
CB2R; R6/1 mice 13 weeks
  CB2R levels, Western blot: did not significantly affect
CA1 pyramidal neurons [9]
  apical dendritic spine density reduction in CA1 pyramidal neurons: reversed
PSD95
  PSD95 protein level: restored
BDNF
  BDNF protein level: restored
CA1 pyramidal neurons [10]
  DSI: suppression of IPSC amplitude after 5-s depolarizing step (-70 to 0 mV): 52.70% ± 5.65
Adult rats
  performance in novel object recognition test: did not affect
  performance in open field test: did not affect
[11]
  CB1R activity in the cortex: increase
  cognitive performance: improved
CB1R [12]
  CB1R protein levels in the hippocampus: significantly increased
Young rats
  cytoskeletal remodeling in the hippocampus: increased dendritic thickness and branching
[13]
  neuroprotection: neuroprotective effects

## CCCCCc1cc(O)c2c(c1)OC(C)(C)[C@@H]1CCC(C)=C[C@@H]21 [THC, Δ9-tetrahydrocannabinol]
mHtt
  mHtt accumulation: alleviates
Aged mice
  cognitive function: improves
  cortical spine density: increasing
  synaptic protein expression: increasing

## CCCCCCC(C)(C)c1ccc([C@@H]2C[C@H](O)CC[C@H]2CCCO)c(O)c1 [CP55940]
CB1R [14]; hippocampal membranes of R6/1 WIN (1 mg/kg) mice
  Fraction high: 0.6378^$$$
CB1R [14]; hippocampal membranes of WT WIN (1 mg/kg) mice
  Fraction high: 0.4654
CB1R [14]; hippocampal membranes of WT veh mice
  Fraction high: 0.4696
CB1R [14]; IC50 (single binding site), hippocampal membranes of R6/1 veh mice
  IC50: 64.4 ± 12.1 nM
CB1R [14]; IC50, first value (high-affinity site), hippocampal membranes of R6/1 WIN (1 mg/kg) mice
  IC50: 10.9 ± 16 nM
CB1R [14]; IC50, first value (high-affinity site), hippocampal membranes of WT WIN (1 mg/kg) mice
  IC50: 18 ± 16.7 nM
CB1R [14]; IC50, first value (high-affinity site), hippocampal membranes of WT veh mice
  IC50: 23.2 ± 18.8 nM
CB1R [14]; read-out: IC50, second value (low-affinity site), hippocampal membranes of R6/1 WIN (1 mg/kg) mice
  IC50: 382 nM
CB1R [14]; read-out: IC50, second value (low-affinity site), hippocampal membranes of WT WIN (1 mg/kg) mice
  IC50: 850 nM
CB1R [14]; read-out: IC50, second value (low-affinity site), hippocampal membranes of WT veh mice
  IC50: 1140 nM
